Measured values reported in US20050130881A1, “Single amino acid based compounds for counteracting effects of reactive oxygen species and free radicals” (priority 2001, published 2005).

Columns and labels:
SOD [1] = experiment: Upregulation of SOD in primary rat cortical cultures (Western immunoblot, laser densitometry); type: cell-based; details: for Upregulation (fold increase) SOD: 5 hours, relative to untreated control cultures
Method: (§1) Primary rat cortical cultures were obtained by growing newborn rat brain cortical cells in Delbecco's modified Eagle medium supplemented with 100 units/ml of penicillin G, 100 μg/ml of streptomycin, and 10% fetal calf serum. The cells were isolated from the E-21 cortex of rat brain, plated at a density of 1×10^5 per ml and grown to confluence within four to five days in an atmosphere containing air and 5% CO2 at 37° C. as described in Cornell-Bell et al., Science, 247: 470-473 (1990) and Cell Calcium, 12: 185-204 (1991). Cultures were grown in 20 ml flasks as a monolayer and then exposed to various concentrations of L-aspartic acid for studies of the effect on upregulation of the gene for SOD. Cultures of the rat brain cortical cells were incubated with 0.00, 0.01, 0.13, 1.30, and 13.30 μg/ml L-aspartic acid for durations of 5 hours. Control cultures were treated in the same manner, but were not incubated with L-aspartic acid.
(§2) Cytoplasmic proteins were isolated according to published methods (Adams et al., J. Leukoc. Biol., 62: 865-873 (1997)). The cell cultures were washed once in phosphate buffer saline (PBS) containing 20 mM EDTA and then suspended in 250 μl of freshly prepared lysis buffer (20 mM Hepes, pH 7.9, 10 mM KCl, 300 mM NaCl, 1 mM MgCl2, 0.1% Triton X-100 nonionic detergent, 20% glycerol, 0.5 mM dithiothreitol (DTT), freshly supplemented with inhibitors as described in Adams et al., […]., 77: 221-233 (2000)). The suspensions were then incubated for at least 10 minutes on ice to lyse cells and then centrifuged (14,000×g for 5 minutes at 4° C.) to pellet cell debris. The supernatant cytoplasmic fractions were removed and stored as aliquots at −80° C. for analysis.
(§3) The cytoplasmic proteins were separated by SDS-PAGE using 5 μg/lane on the gels for analysis by Western immunoblots. […] SOD expression was detected in the Western blots using anti-SOD rabbit polyclonal antibody (Rockland, Inc., Gilbertville, Pa.). The Western blots were also analyzed by laser densitometry to quantify SOD protein upregulation. The control in these experiments was an identical culture flask, which was treated only with vehicle (i.e., buffer, no L-aspartic acid).

CAT [2] = experiment: Upregulation of CAT in primary rat cortical cultures (Western immunoblot, laser densitometry); type: cell-based; details: for Upregulation (fold increase) CAT: 5 hours, relative to untreated control cultures
Method: [The source words this procedure for another target and reports this target under the same test.] as §1, §2, §3

SOD [3] = experiment: In vivo upregulation of SOD in rat brain (Western immunoblot); design: species or system Sprague-Dawley rats; details: for Fold Upregulation of SOD: relative to vehicle
Method: (§4) In vivo experiments were carried out in Sprague-Dawley rats (300-325 g) with solutions of L-aspartic acid. The animals were injected intravenously (iv) via the tail vein with L-aspartic acid. Each animal received one injection of L-aspartic acid in normal saline at total dose equivalent of 0.00, 0.75, 1.50, 3.00, and 6.00 mg L-aspartic acid/kg body weight or orally by gavage at a dose equivalent of 0.00 or 60.0 mg/kg body weight. The animals were sacrificed by decapitation at 6 hours post injection and dissected to isolate the brain organs, which were frozen at −70° C. for subsequent analysis by Western immunoblots.
(§5) Each brain tissue was thawed and homogenized in a Down's homogenizer using ten volumes of homogenizer buffer (see, Adams et al., […], 77: 221-233 (2000); buffer as described in Adams et al., J. Leukoc. Biol., 62: 865-875 ([…])) to obtain a crude cytoplasmic fraction. The brain tissue homogenates were centrifuged (14,000×g for 5 minutes at 4° C.) to yield the supernatant purified cytoplasmic protein fractions for Western immunoblot analysis as described in Adams et al. (J. Cell. Biochem., 77: 221-233 (2000)). A 10 μg sample of each protein fraction was then separated by SDS polyacrylamide gel electrophoresis (SDS-PAGE) and analyzed for SOD and CAT content by Western blot assay as above.
(§6) Control for measurement of unstimulated levels of SOD were obtained from vehicle-only (i.e., no L aspartic acid), injected or gavaged rats that were sacrificed at 6 hours post injection. […] Standard quantities of each cytoplasmic fraction (10 μg) were loaded on a lane of a gel for electrophoretic separation and Western immunoblot analysis (Adams et al., J. Cell. Biochem., 77: 221-233 (2000)). The stained gels were photographed and scanned by laser densitometry to quantify intensities in comparison to enzyme levels for control vehicle treated rats.
(§7) The data are expressed as a fold increase relative to control animals that received vehicle only. Intravenous (i.v.) injections were administered as 0.3 ml in normal saline during five minutes. Oral doses were administered as a solution in 1 ml saline by gavage.

CAT [4] = experiment: In vivo upregulation of CAT in rat brain (Western immunoblot); design: species or system Sprague-Dawley rats; details: for Fold Upregulation of CAT: relative to vehicle
Method: as §4, §5, §6, §7

Sprague-Dawley rats = experiment: In vivo observations of toxicity and behaviour after dosing; details: 60 mg/Kg oral, rat
Method: as §4
At 6 mg/Kg, upregulation of CAT became higher than SOD. The compound is also active orally, but in that case, a dose of 60 mg/Kg must be used in the rat to see an effect.

[5] = test system: primary rat cortical cultures; experiment: Tissue culture properties of primary rat cortical cultures; type: cell-based; details: low doses of up to 10 ng/ml in culture
[6] = 0.75 mg/kg i.v., rat brain, 6 hours post injection
[7] = 1.50 mg/kg i.v., rat brain, 6 hours post injection
[8] = 3.00 mg/kg i.v., rat brain, 6 hours post injection
[9] = 6.00 mg/kg i.v., rat brain, 6 hours post injection
[10] = 60.00 mg/kg oral (gavage), rat brain, 6 hours

N[C@@H](CC(=O)O)C(=O)O [Aspartic Acid, L-aspartic acid]
Upregulation (fold increase) SOD (SOD [1]; 0.01 μg/ml): 1.0 fold increase
SOD upregulation (SOD [1]; 130 ng/ml): upregulation of SOD
Upregulation (fold increase) SOD (SOD [1]; 0.13 μg/ml): 1.6 fold increase
SOD upregulation (SOD [1]; 1.3 μg/ml): upregulated
Upregulation (fold increase) SOD (SOD [1]; 1.30 μg/ml): 2.1 fold increase
SOD increase by Western blot (SOD [1]; 13.3 μg/ml): substantial increase
Upregulation (fold increase) SOD (SOD [1]; 13.30 μg/ml): 3.5 fold increase
effect on SOD upregulation (SOD [1]; low doses of up to 10 ng/ml in culture): no effect
Upregulation (fold increase) CAT (CAT [2]; 0.01 μg/ml): 1.0 fold increase
Upregulation (fold increase) CAT (CAT [2]; 0.13 μg/ml): 1.0 fold increase
CAT upregulation (CAT [2]; 1.3 μg/ml): upregulated
Upregulation (fold increase) CAT (CAT [2]; 1.30 μg/ml): 2.3 fold increase
Upregulation (fold increase) CAT (CAT [2]; 13.30 μg/ml): 3.7 fold increase
Fold Upregulation of SOD (SOD [3]; [6]): 1.0 fold
Fold Upregulation of SOD (SOD [3]; [7]): 1.0 fold
Fold Upregulation of SOD (SOD [3]; [8]): 1.3 fold
Fold Upregulation of SOD (SOD [3]; [9]): 1.3 fold
Fold Upregulation of SOD (SOD [3]; [10]): 2.9 fold
i.v. dose that must be injected before upregulation of SOD is observed (SOD [3]; i.v., rat brain): 3 mg/kg
oral dose that must be used to see an effect (SOD upregulation) (SOD [3]; oral, rat): 60 mg/kg
Fold Upregulation of CAT (CAT [4]; [6]): 1.0 fold
Fold Upregulation of CAT (CAT [4]; [7]): 1.0 fold
Fold Upregulation of CAT (CAT [4]; [8]): 1.2 fold
Fold Upregulation of CAT (CAT [4]; [9]): 2.5 fold
Fold Upregulation of CAT (CAT [4]; [10]): 3.5 fold
i.v. dose that must be injected before upregulation of CAT is observed (CAT [4]; i.v., rat brain): 3 mg/kg
oral dose that must be used to see an effect (CAT upregulation) (CAT [4]; oral, rat): 60 mg/kg
toxic effect (Sprague-Dawley rats): no toxic effect
effect on any aspects of tissue culture properties [5]: no effect
